Reference: ChEMBL document CHEMBL1122865 (J Med Chem, 1985)

Experiments:
[1] = target: D(1A) dopamine receptor (Rattus norvegicus) (UniProt P18901); experiment: Tested for its ability to inhibit rat caudate adenylate cyclase (Dopamine receptor D1) at 10 uM
[2] = target: D(1A) dopamine receptor (Rattus norvegicus) (UniProt P18901); experiment: Tested for its ability to stimulate rat caudate adenylate cyclase (Dopamine receptor D1) at 10 uM
[3] = target: D(2) dopamine receptor (Bos taurus) (UniProt P20288); experiment: Ability to inhibit specific [3H]spiroperidol binding to bovine anterior pituitary homogenate, at 10 uM
Oryctolagus cuniculus [4] = organism: Oryctolagus cuniculus; experiment: Compound was tested for DA agonistic activity in the isolated perfused rabbit ear artery.; assay type: functional; settings: read-out: ED50 (the source's name)
[5] = target: D(2) dopamine receptor (Bos taurus) (UniProt P20288); experiment: Compound was tested for its ability to inhibit specific [3H]spiroperidol binding to bovine anterior pituitary homogenate, at 10 uM
Oryctolagus cuniculus [6] = organism: Oryctolagus cuniculus; experiment: The compound was tested for DA agonistic activity in the isolated perfused rabbit ear artery.; assay type: functional; settings: read-out: ED50 (the source's name)

Sequence of D(1A) dopamine receptor (Rattus norvegicus) (P18901 whole entry): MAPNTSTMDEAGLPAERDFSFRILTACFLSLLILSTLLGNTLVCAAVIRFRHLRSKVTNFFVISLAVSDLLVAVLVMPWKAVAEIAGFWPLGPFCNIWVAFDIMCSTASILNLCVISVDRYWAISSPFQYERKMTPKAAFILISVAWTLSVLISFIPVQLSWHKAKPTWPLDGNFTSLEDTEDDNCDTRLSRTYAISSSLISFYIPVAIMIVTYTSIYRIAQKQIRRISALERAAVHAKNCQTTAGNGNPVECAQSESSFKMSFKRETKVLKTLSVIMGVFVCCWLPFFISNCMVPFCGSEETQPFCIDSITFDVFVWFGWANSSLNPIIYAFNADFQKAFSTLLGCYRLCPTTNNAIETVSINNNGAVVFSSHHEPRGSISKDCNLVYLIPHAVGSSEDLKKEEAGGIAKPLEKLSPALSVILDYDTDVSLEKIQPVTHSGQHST
Sequence of D(2) dopamine receptor (Bos taurus) (P20288 whole entry, the tested form may be a part): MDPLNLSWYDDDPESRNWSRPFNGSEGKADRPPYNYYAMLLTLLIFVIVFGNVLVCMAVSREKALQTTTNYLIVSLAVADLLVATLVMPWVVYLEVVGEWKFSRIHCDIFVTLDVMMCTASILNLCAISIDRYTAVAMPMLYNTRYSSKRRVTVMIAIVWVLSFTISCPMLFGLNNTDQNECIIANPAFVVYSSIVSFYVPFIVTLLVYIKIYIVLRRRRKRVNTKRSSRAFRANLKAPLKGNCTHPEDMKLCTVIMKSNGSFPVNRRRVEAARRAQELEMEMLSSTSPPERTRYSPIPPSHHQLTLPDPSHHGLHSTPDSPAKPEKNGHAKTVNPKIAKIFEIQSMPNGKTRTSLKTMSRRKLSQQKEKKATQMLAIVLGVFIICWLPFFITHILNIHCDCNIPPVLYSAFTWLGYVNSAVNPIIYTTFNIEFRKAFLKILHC

Structure (SMILES) | inhibition [1] [%] | Stimulation [2] [%] | Displacement [3] [%] | EC50 (Oryctolagus cuniculus [4]) [µM] | Kb [5] [µM] | EC50 (Oryctolagus cuniculus [6]) [µM]
NC1CCc2cc(O)c(O)cc2C1 (stereo not given) |  |  |  |  |  | 0.0046
NCCc1cccc2nc(O)ccc12 | 5 | 1 | 21 |  |  | 
NCCc1ccc(O)c(O)c1 [DOPAMINE] |  |  |  |  |  | 0.037
Oc1ccc(CCNCCc2ccc(O)c3nc(O)ccc23)cc1 | 6 | 2 | 42 | 0.136 |  | 
NCCc1ccc(O)c2nc(O)ccc12 | 1 | 27 | 56 | 0.14 | 4.04 | 
COc1ccc(CCN)c2ccc(O)nc12 | 1 | 3 | 9 |  |  | 

Continued, in another order:

inhibition [1] [%] | Stimulation [2] [%] | Displacement [3] [%] | EC50 (Oryctolagus cuniculus [4]) [µM] | Kb [5] [µM] | Structure (SMILES) | EC50 (Oryctolagus cuniculus [6]) [µM]
0 | 1 | 19 | 0.493 |  | CCCN(CCC)CCc1ccc(O)c2[nH]c(=O)ccc12 | 
0 | 4 | 30 |  |  | CCCN(CCC)CCc1cccc2nc(O)ccc12 | 
0 | 1 | 40 | 0.252 | 15.1 | CCCN(CCC)CCc1ccc(O)c2c1CCC(=O)N2 | 
0 | 0 | 78 | 0.0123 | 0.77 | CCCN(CCc1ccc(O)cc1)CCc1ccc(O)c2nc(O)ccc12 | 
6 | 0 | 72 | 0.128 | 2.02 | CCCN(CCc1ccccc1)CCc1ccc(O)c2nc(O)ccc12 | 
0 | 0 | 9 |  |  | COc1ccc(CCNCCc2ccccc2)c2ccc(O)nc12 | 
0 | 3 | 6 |  |  | CCCN(CCC)CCc1ccc(OC)c2nc(O)ccc12 | 
